From PMC4111374 (Journal of Medicinal Chemistry, 2014)

Key:
[1] = target: hERG channel (Homo sapiens, UniProt Q12809); details: for ratio of IC50 for hERG inhibition to IC50 for inhibition of LS174T cell proliferation: human; for interaction with hERG: [3H]-dofetilide binding assay
[2] = water solubility of hydrochloride salts; type: physicochemical
[3] = system: LS174T colon cancer cells; details: earlier report; cited from earlier work
[4] = cited from earlier work
[5] = system: LS174T colon cancer cells; experiment: LS174T cell proliferation; type: cell-based; details: for IC50: Homo sapiens, LS174T, read-out: inhibition of LS174T cell proliferation IC50, LS174T colon cancer cells, 1 to 300 nM, triplicate

hERG channel, sequence (Q12809 whole entry): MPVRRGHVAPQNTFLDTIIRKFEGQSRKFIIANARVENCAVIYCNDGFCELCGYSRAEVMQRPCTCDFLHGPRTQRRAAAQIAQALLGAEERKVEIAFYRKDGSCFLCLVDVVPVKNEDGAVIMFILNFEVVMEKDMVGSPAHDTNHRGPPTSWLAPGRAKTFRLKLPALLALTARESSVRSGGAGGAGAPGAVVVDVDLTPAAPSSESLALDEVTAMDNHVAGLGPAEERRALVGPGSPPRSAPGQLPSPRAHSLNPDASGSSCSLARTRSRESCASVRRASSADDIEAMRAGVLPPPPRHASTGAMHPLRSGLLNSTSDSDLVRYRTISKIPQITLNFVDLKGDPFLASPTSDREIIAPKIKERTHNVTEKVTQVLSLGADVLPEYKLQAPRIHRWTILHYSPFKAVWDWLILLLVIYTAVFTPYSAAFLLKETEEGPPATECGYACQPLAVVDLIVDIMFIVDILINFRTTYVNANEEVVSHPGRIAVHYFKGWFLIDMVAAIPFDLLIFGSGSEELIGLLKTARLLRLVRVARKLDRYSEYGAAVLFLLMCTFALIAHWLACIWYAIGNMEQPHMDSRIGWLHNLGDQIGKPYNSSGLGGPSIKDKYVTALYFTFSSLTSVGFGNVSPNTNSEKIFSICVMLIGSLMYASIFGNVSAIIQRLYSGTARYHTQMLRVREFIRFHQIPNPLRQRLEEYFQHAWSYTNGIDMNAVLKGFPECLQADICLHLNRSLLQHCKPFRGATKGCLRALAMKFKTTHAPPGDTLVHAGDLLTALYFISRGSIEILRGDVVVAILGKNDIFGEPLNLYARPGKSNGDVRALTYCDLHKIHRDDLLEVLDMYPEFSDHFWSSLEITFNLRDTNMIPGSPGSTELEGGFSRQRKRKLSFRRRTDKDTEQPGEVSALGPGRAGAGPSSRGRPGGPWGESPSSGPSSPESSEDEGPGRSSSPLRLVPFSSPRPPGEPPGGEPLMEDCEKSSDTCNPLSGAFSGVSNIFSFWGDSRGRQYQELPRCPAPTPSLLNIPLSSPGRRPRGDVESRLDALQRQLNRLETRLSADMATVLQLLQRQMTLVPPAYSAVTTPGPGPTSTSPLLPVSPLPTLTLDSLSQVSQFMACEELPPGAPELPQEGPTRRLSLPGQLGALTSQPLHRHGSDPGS

Row | Compound | ratio of IC50 for hERG inhibition to IC50 for inhibition of LS174T cell proliferation [1] | interaction with hERG [1] | other results
1 | CN(C)c1ncc(/C=C/c2c(F)cccc2F)cn1 [FIDAS 10a, (E)-5-(2′,6′-Difluorostyryl)-2-(N,N-dimethylamino)pyrimidine] | 0.5 × 10^3 |  | 
2 | CNc1ccc(/C=C/c2c(F)cccc2Cl)cn1 [FIDAS 8b, (E)-5-(2′-Chloro-6′-fluorostyryl)-2-(N-methylamino)pyridine] | 5.0 × 10^3 | did not interact appreciably with hERG | water solubility of hydrochloride salt [2]: water-soluble
3 | CN(C)c1ccc(/C=C/c2c(F)cccc2F)cc1 [FIDAS 1a, (E)-4-(2′,6′-difluorostyryl)-N,N-dimethylaniline] |  |  | in vitro activity in LS174T cells [3]: low micromolar range; half-life in vivo [4]: reasonable half-life; oral bioavailability ([4]; in vivo): good oral bioavailability
4 | CN(C)c1ccc(/C=C/c2c(F)cccc2Cl)nc1 [FIDAS 5a, (E)-2-(2′-Chloro-6′-fluorostyryl)-5-(N,N-dimethylamino)pyridine] | 1.0 × 10^3 |  | 
5 | CN(C)c1ccc(/C=C/c2c(F)cccc2Cl)cn1 [FIDAS 8a, (E)-5-(2′-Chloro-6′-fluorostyryl)-2-(N,N-dimethylamino)pyridine] | 12.7 × 10^3 | did not interact appreciably with hERG | water solubility of hydrochloride salt [2]: water-soluble
6 | CNc1ccc(/C=C/c2c(F)cccc2F)cc1 [FIDAS 1b] | 6.5 × 10^3 | did not interact appreciably with hERG | IC50 [5]: < 10 nM; IC50 for the inhibition of LS174T cells relative to 1a ([5]; LS174T cells): 4 fold
7 | CNc1ccc(/C=C/c2c(F)cccc2Cl)cc1 [FIDAS 2b] | 6.6 × 10^3 | did not interact appreciably with hERG | IC50 [5]: < 10 nM; IC50 for the inhibition of LS174T cells relative to 1a ([5]; LS174T cells): 4 fold
8 | CN(C)c1ccc(/C=C/c2c(F)cccc2Cl)cc1 [FIDAS 2a] |  |  | in vitro activity relative to 3a ([5]; LS174T cells, relative to 3a): 10 fold
